One assay concerns the target galectin-1 (Homo sapiens, UniProt P09382). As to the kind of experiment: Fluorescence anisotropy assay, inhibition of probe binding to galectin-1. Particulars: for Kd: about 1 μM galectin, 0.1 or 0.02 μM probe, 4 mM β-mercaptoethanol, NI = no inhibition at highest concentration tested, read-out: Calculated Kd, Gal-1. The procedure:
(§1) FA was used to analyze interactions of probes and ligands with galectins in solution, as described before ([41][–][44]). A PheraStarFS plate reader, with software PHERAstar Mars version 2.10 R3 (BMG, Offenburg, Germany), was used, and FA of fluorescein-tagged saccharide probes was measured with excitation at 485 nm and emission at 520 nm.
(§2) The anisotropy (A) is given in units of mA, where the theoretical maximum is 400, and the value for free fluorescein typically 23. All conditions were measured in at least two duplicate wells.
(§3) In this study, the effect of inhibitors of the saccharide probe/galectin interaction was tested in two ways. In the first, a fixed low concentration of fluorescein-tagged probe (0.1 μM) and galectin were mixed with a range of concentrations of inhibitor. An optimal probe was chosen for each galectin to permit use of as low as possible concentration of galectin, while still achieving a sufficient rise in anisotropy for a reliable measuring range ([42][–][44]). […] With structurally defined inhibitors (pure synthetic galacto-oligosaccharides, small galactomannans, and reference ligands) the molecular mass, molar concentrations, and number of binding sites (in this case one binding site per ligand) were known and their dissociation constants (Kd) could therefore be directly calculated, using the data from the FA assay as described in Sörme et al. ([41]). […] Even if the molar concentration of the inhibitor is not known, the anisotropy value at a given condition permits calculation of the molar concentration of free galectin, as described below, and from this what fraction of the galectin is bound by a given mass per volume concentration of inhibitor. From this, the ratio of the molar concentration of the free inhibitor binding sites to their Kd value can be calculated, even if the FA assay cannot distinguish between the case when this is due to a few high affinity binding sites in the polysaccharide fraction or many of low affinity.

Assay [1] addresses T1, galectin-3 (Homo sapiens, UniProt P17931). In words: Fluorescence anisotropy assay, galectin-3. The format is binding. Particulars: about 1 μM galectin, 0.1 or 0.02 μM probe; NI = no inhibition at highest concentration tested; read-out: Calculated Kd, Gal-3. The procedure:
as §1, §2, §3

For another assay, the target named is T2, galectin-9N (Homo sapiens, UniProt O00182).
T2 construct: the N-terminal CRD of galectin-9 (galectin-9N)
As to the kind of experiment: Fluorescence anisotropy assay, galectin-9N. Particulars: about 1 μM galectin, 0.1 or 0.02 μM probe; NI = no inhibition at highest concentration tested; read-out: Calculated Kd, Gal-9N. The format is binding. The procedure: as §1, §2, §3

Another assay deals with Gal-3 R186S (Homo sapiens, UniProt P17931, R186S). In words: Fluorescence anisotropy assay, galectin-3 R186S mutant. Particulars: about 1 μM galectin, 0.1 or 0.02 μM probe; read-out: Calculated Kd, Gal-3 R186S. The format is binding. The method, then: as §1, §2
(§4) In this study, the effect of inhibitors of the saccharide probe/galectin interaction was tested in two ways. […] With structurally defined inhibitors (pure synthetic galacto-oligosaccharides, small galactomannans, and reference ligands) the molecular mass, molar concentrations, and number of binding sites (in this case one binding site per ligand) were known and their dissociation constants (Kd) could therefore be directly calculated, using the data from the FA assay as described in Sörme et al. ([41]). […] From this, the ratio of the molar concentration of the free inhibitor binding sites to their Kd value can be calculated, even if the FA assay cannot distinguish between the case when this is due to a few high affinity binding sites in the polysaccharide fraction or many of low affinity.

The target of another assay is T3, Gal-4C (Homo sapiens, UniProt P56470).
T3 construct: Gal-4C
T3 sequence (P56470 194-323 limits assumed): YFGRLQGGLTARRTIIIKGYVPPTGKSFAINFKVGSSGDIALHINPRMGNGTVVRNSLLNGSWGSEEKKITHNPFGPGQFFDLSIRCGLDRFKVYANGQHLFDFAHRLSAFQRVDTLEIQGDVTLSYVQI
In words: Fluorescence anisotropy assay, galectin-4C. The format is binding. As to conditions: about 1 μM galectin, 0.1 or 0.02 μM probe; NI = no inhibition at highest concentration tested; read-out: Calculated Kd, Gal-4C. The method, then: as §1, §2, §3

The target in a further assay is T4, Gal-4N (Homo sapiens, UniProt P56470).
T4 construct: Gal-4N
T4 sequence (P56470 19-150 limits assumed): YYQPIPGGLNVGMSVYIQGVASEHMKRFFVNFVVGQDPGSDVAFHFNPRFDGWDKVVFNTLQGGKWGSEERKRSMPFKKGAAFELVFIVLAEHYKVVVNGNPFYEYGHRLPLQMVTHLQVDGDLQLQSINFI
As to the kind of experiment: Fluorescence anisotropy assay, galectin-4N. The format is binding. Particulars: about 1 μM galectin, 0.1 or 0.02 μM probe; NI = no inhibition at highest concentration tested; read-out: Calculated Kd, Gal-4N. The method, then: as §1, §2, §4

The next assay addresses T5, Gal-9C (Homo sapiens, UniProt O00182).
T5 construct: Gal-9C
As to the kind of experiment: Fluorescence anisotropy assay, galectin-9C. Particulars: about 1 μM galectin, 0.1 or 0.02 μM probe; read-out: Calculated Kd, Gal-9C. The format is binding. The procedure:
as §1, §2, §3

Another assay has as its target T6, galectin-2 (Homo sapiens, UniProt P05162).
T6 sequence (P05162 1-132): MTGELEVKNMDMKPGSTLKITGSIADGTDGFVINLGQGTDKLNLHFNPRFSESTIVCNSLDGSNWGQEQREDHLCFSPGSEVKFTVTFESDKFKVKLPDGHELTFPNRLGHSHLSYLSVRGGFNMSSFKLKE
As to the kind of experiment: Fluorescence anisotropy assay, galectin-2. The format is binding. Particulars: about 1 μM galectin, 0.1 or 0.02 μM probe; NI = no inhibition at highest concentration tested; read-out: Calculated Kd, Gal-2. The procedure: as §1, §2, §4

The next assay has as its target T7, galectin-8N (Homo sapiens, UniProt O00214).
T7 construct: the N-terminal CRD of galectin-8 (galectin-8N)
T7 sequence (O00214 19-152 limits assumed): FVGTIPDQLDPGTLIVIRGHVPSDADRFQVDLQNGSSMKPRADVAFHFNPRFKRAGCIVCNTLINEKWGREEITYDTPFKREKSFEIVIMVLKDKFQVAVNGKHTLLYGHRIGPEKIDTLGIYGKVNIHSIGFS
In words: Fluorescence anisotropy assay, galectin-8N. The format is binding. As to conditions: about 1 μM galectin, 0.1 or 0.02 μM probe; read-out: Calculated Kd, Gal-8N. The method, then: as §1, §2, §4

The target in assay [2] is T1, galectin-3. As to conditions: given as example of low affinity; no reference given; read-out: Kd for galectin-3 canonical carbohydrate-binding site; cited from earlier work.
The target of the next assay is T8, galectin-1 wild type (UniProt P09382 1-135).
T8 construct: galectin-1, wild type; also called Gal-1; galectin-1 WT; source: called purified galectins in the discussion
In words: fluorescence polarisation; fluorescence anisotropy competition in solution; galectin-1 WT 0.5 uM, tdga saccharide probe 0.1 uM, increasing concentrations of ASF in the presence of the peptide Anginex, with or without beta-mercaptoethanol. As to conditions: both partners purified.

One may read the Kd as the free concentration of one partner at which half of the binding sites on the other are occupied at equilibrium, for simple one-to-one binding.

Like-named read-outs stand apart in the source and are kept apart here.

galectin-1, sequence (P09382 whole entry, species assumed): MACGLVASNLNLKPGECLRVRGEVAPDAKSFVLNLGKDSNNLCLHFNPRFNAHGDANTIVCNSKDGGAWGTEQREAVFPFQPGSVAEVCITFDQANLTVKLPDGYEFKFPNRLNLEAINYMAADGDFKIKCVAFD
T5 sequence (O00182 227-355 limits assumed): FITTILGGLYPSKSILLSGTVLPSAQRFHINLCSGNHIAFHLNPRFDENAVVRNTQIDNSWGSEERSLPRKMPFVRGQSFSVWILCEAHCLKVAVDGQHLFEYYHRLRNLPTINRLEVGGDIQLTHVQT
T1 sequence (P17931 whole entry): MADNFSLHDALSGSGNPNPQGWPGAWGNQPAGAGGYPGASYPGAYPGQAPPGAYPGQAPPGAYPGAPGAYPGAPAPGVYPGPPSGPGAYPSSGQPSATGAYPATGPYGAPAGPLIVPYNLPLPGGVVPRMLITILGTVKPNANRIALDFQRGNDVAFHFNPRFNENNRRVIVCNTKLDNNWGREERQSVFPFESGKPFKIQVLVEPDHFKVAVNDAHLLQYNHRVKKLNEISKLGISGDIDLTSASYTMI
T2 sequence (O00182 17-148 limits assumed): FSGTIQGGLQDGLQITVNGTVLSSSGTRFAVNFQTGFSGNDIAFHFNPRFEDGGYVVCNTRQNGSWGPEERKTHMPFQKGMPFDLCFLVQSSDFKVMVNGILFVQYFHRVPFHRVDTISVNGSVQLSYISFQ
Gal-3 R186S, sequence (P17931 whole entry R186S): as the sequence (P17931 whole entry) above, with R186S counted along it
T8 sequence (P09382 whole entry): as the sequence (P09382 whole entry, species assumed) above

As for `OC[C@H]1O[C@@H](OC[C@H]2O[C@@H](OC[C@H]3OC(O)[C@H](O)[C@@H](O)[C@H]3O)[C@H](O)[C@@H](O)[C@H]2O)[C@H](O)[C@@H](O)[C@H]1O` (stereo partly shown) [Galβ1–6Galβ1–6Gal], the Kd on galectin-1 is over 2 mM; on galectin-3 [1], over 2000 µM; on galectin-9N it was over 2 mM.
On to `CO[C@@H]1O[C@H](CO)[C@@H](O[C@@H]2O[C@H](CO)[C@H](O)[C@H](O)[C@H]2O)[C@H](O)[C@H]1O` [Methyl β-Lac, reference compound], for which the Kd was 0.17 mM on galectin-1; 110 µM at galectin-3 [1]; 290 µM on Gal-3 R186S; 2.9 mM at Gal-4C; 2.6 mM on Gal-4N; 0.19 mM on Gal-9C.
`OC[C@H]1O[C@@H](OC[C@H]2O[C@@H](OC[C@H]3OC(O)[C@H](O)[C@@H](O)[C@H]3O)[C@H](O)[C@@H](O[C@@H]3O[C@H](CO)[C@H](O)[C@H](O)[C@H]3O)[C@H]2O)[C@H](O)[C@@H](O)[C@H]1O` (stereo partly shown) [Branched Galβ1–6(Galβ1–3)Galβ1–6Gal, Galβ1–6(Galβ1–3)Galβ1–6Gal]: the Kd on galectin-1 was 0.8 mM; on galectin-3 [1] it was 80 µM; at galectin-9N it was 0.051 mM.
Turning to `OC[C@H]1O[C@@H](O[C@H]2[C@@H](O)[C@@H](CO)OC(O)[C@@H]2O)[C@H](O)[C@@H](O)[C@H]1O` (stereo partly shown) [Galβ1–3Gal], the Kd was 180 µM on galectin-3 [1] and 0.15 mM at galectin-9N.
In the case of `OC[C@H]1O[C@@H](O[C@H]2[C@@H](O)[C@@H](CO)O[C@@H](OC[C@H]3OC(O)[C@H](O)[C@@H](O)[C@H]3O)[C@@H]2O)[C@H](O)[C@@H](O)[C@H]1O` (stereo partly shown) [Galβ1–3Galβ1–6Gal], the Kd on galectin-1 was 1.2 mM; at galectin-3 [1], 110 µM; on galectin-9N it was 0.068 mM.
For the molecule Anginex [reference compound], at galectin-1 (galectin-1 0.5 μM, tdga probe 0.1 μM, Fig. 7E), the “influence on galectin-1 interaction with Davanat®” value is “no influence”. For the same molecule, the “potentiation of the inhibition of galectin-1 by ASF (factor)” value at galectin-1 (with or without β-mercaptoethanol, Fig. 7F) is “about 500”.
As for `CO[C@@H]1O[C@H](CO)[C@@H](O[C@@H]2O[C@H](CO)[C@H](O)[C@H](O)[C@H]2O)[C@H](O)[C@H]1NC(C)=O` [Methyl β-LacNAc, reference compound], the equilibrium dissociation constant (Kd) at galectin-1 is 0.084 mM; on galectin-3 [1] it was 52 µM; on Gal-3 R186S, 1200 µM.
Take `OC[C@H]1O[C@@H](O[C@@H]2[C@H](O)[C@@H](O)C(O)O[C@@H]2CO)[C@H](O)[C@@H](O)[C@H]1O` (stereo partly shown) [Galβ1–4Gal]: the dissociation constant Kd at galectin-9N is 1.2 mM.
Consider `OC[C@H]1O[C@H](OC[C@H]2OC(O)[C@@H](O)[C@@H](O)[C@@H]2O[C@@H]2O[C@H](CO)[C@@H](O[C@@H]3O[C@H](CO)[C@@H](O)[C@H](O)[C@@H]3O)[C@H](O)[C@@H]2O)[C@H](O)[C@@H](O)[C@H]1O` (stereo partly drawn) [6^1-α-Galactosyl-mannotriose, 6^1-α-D-galactosyl-mannotriose], for which the dissociation constant (Kd) at galectin-2 was over 10 mM; at galectin-3 [1], 3600 µM; on Gal-4C it was over 10 mM; on Gal-4N it was over 10 mM; at galectin-8N it was 7.4 mM; at galectin-9N it was 2.4 mM.
As for `OC[C@H]1O[C@@H](OC[C@H]2OC(O)[C@H](O)[C@@H](O[C@@H]3O[C@H](CO)[C@H](O)[C@H](O)[C@H]3O)[C@H]2O)[C@H](O)[C@@H](O)[C@H]1O` (stereo partly shown) [Branched Galβ1–6(Galβ1–3)Gal, Galβ1–6(Galβ1–3)Gal], the Kd at galectin-1 is 1.3 mM; on galectin-3 [1], 130 µM; at galectin-9N it was 0.1 mM.
Turning to `OC1OC[C@H](O)[C@H](O)[C@H]1O` (mixture of isomers) [L-Arabinose, L-arabinose, reference compound], the Kd on galectin-9N is 94 mM.
Regarding `OC[C@H]1O[C@H](OC[C@H]2O[C@@H](O[C@H]3[C@H](O)[C@H](O)[C@H](O[C@H]4[C@H](O)[C@H](O)[C@H](O[C@H]5[C@H](O)[C@H](O)C(O)O[C@@H]5CO)O[C@@H]4CO)O[C@@H]3CO[C@H]3O[C@H](CO)[C@H](O)[C@H](O)[C@H]3O)[C@@H](O)[C@@H](O)[C@@H]2O[C@@H]2O[C@H](CO)[C@@H](O)[C@H](O)[C@@H]2O)[C@H](O)[C@@H](O)[C@H]1O` (stereo partly drawn) [6^3,6^4-α-Galactosyl-mannopentaose, 6^3,6^4-α-D-galactosyl-mannopentaose], the Kd at galectin-1 was 4.3 mM; on galectin-2, 8.3 mM; on galectin-3 [1], 1500 µM; at Gal-4C, over 10 mM; on galectin-8N it was 2.5 mM; on Gal-9C, 2 mM. The Kd at galectin-9N is 0.98 mM.
For the molecule `OC[C@H]1O[C@@H](OC[C@H]2OC(O)[C@H](O)[C@@H](O)[C@H]2O)[C@H](O)[C@@H](O)[C@H]1O` (stereo partly shown) [Galβ1–6Gal], the Kd on galectin-1 and on galectin-9N was over 2 mM each time.
In the case of `O=C[C@H](O)[C@@H](O)[C@@H](O)[C@H](O)CO` [Gal, galactose], the Kd at galectin-3 [2] was about 5 mM.
As to `COC1OC(CO)C(O)C(O)C1O` (stereo not drawn) [Methyl β-Gal, reference compound], the Kd at Gal-9C was 8.6 mM; at galectin-9N, 4 mM.

B1: asialofetuin (natural protein, UniProt P12763 19-359, looked up)
chain: IPLDPVAGYKEPACDDPDTEQAALAAVDYINKHLPRGYKHTLNQIDSVKVWPRRPTGEVYDIEIDTLETTCHVLDPTPLANCSVRQQTQHAVEGDCDIHVLKQDGQFSVLFTKCDSSPDSAEDVRKLCPDCPLLAPLNDSRVVHAVEVALATFNAESNGSYLQLVEISRAQFVPLPVSVSVEFAVAATDCIAKEVVDPTKCNLLAEKQYGFCKGSVIQKALGGEDVRVTCTLFQTQPVIPQPQPDGAEAEAPSAVPDAAGPTPSAAGPPVASVVVGPSVVAVPLPLHRAHYDLRHTFSGVASVESSSGEAFHVGKTPIVGQPSIPGGPVRLCPGRIRYFKI
notes: asialofetuin (ASF), a glycoprotein; Desialylated fetuin; also called ASF
On to B1, for which, in the assay with galectin-1 wild type, the “fold potentiation by Anginex of the inhibition of galectin-1/probe binding by ASF” value is about 500 fold.

The values are drawn from publication PMC4933242, “Low or No Inhibitory Potency of the Canonical Galectin Carbohydrate-binding Site by Pectins and Galactomannans*” (The Journal of Biological Chemistry, 2016).
